Results published in patent publication US20230116602A1, “MCL1 INHIBITORS AND USES THEREOF” (California Institute of Technology, priority 2019, published 2023).
Read-outs that look alike come from different tables or passages of the source.

What was measured:
[1] = system: drug-sensitive cell lines of Table 3; assay: Cell line growth retardation assay, sensitive cohort; format: cell-based, Human; conditions: for IC50: arithmetic mean of IC50s over the sensitive cohort of Table 3, 6 days growth, read-out: AvgSen IC50; for Fold Diff: average IC50 of resistant cohort divided by average IC50 of sensitive cohort
How it was run: (§1)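 Cell lines classed as MCL1-inhibition sensitive or resistant were seeded, rested 24 h, then exposed to 10–0.0032 μM compound for 6 days. Cells were counted by imaging; growth inhibition was the ratio of population doublings with vs without compound from a pre-treatment baseline. IC50 from curve fits, averaged per cohort.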

[2] = molecular target: BCL2 (Homo sapiens, UniProt P10415); assay: BCL2 affinity assay (competition binding, qPCR readout); conditions: recombinant BCL2, 11-point 3-fold dilution series
BCL2, sequence (P10415 whole entry): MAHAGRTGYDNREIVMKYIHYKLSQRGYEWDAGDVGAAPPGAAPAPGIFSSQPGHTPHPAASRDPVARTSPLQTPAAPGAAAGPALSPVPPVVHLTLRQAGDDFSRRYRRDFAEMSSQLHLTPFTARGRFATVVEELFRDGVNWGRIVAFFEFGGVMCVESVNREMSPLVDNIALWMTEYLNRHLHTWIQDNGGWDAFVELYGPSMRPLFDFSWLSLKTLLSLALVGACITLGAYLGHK
Protocol: (§2) Recombinant MCL1, BCL2 and BCXL proteins were prepared in either an E. coli host derived from the BL21 strain or in HEK-293 cells. The recombinant proteins were subsequently tagged with DNA for qPCR detection. Streptavidin-coated magnetic beads were treated for 30 minutes at room temperature with the respective biotinylated peptide ligands for each recombinant protein to generate affinity resins for the assays. The liganded beads were blocked with excess biotin and washed with blocking buffer (SeaBlock (Pierce), 1% BSA, 0.05% Tween 20, 1 mM DTT) to remove unbound ligand and to reduce nonspecific binding. Binding reactions were assembled by combining recombinant protein, liganded affinity beads, and test compounds in 1× binding buffer (20% SeaBlock, 0.17×PBS, 0.05% Tween 20, 6 mM DTT). Test compounds were prepared as 111X stocks in 100% DMSO. The compounds were then diluted directly into the assays such that the final concentration of DMSO was 0.9%. The assay plates were incubated at room temperature with shaking for 1 hour and the affinity beads were washed with wash buffer (1×PBS, 0.05% Tween 20). The beads were then re-suspended in elution buffer (1×PBS, 0.05% Tween 20, 0.5 μM non-biotinylated affinity ligand) and incubated at room temperature with shaking for 30 minutes. The recombinant protein concentration in the eluates was measured by qPCR. Kds were determined using an 11-point 3-fold compound dilution series with three DMSO control points.

[3] = molecular target: MCL1 (Homo sapiens, UniProt Q07820); assay: MCL1 affinity assay (competition binding, qPCR readout); conditions: recombinant MCL1, 11-point 3-fold dilution series
MCL1, sequence (Q07820 whole entry): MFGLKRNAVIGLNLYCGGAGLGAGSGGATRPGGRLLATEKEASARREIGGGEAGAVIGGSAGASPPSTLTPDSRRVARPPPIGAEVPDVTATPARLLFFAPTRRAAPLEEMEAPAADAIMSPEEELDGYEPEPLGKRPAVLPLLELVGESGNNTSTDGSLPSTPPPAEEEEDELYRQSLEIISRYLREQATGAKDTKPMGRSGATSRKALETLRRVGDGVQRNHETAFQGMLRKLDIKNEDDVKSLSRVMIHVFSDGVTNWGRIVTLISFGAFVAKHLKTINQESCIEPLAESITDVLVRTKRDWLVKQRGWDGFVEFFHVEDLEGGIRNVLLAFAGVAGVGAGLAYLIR
How it was run: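 Competition binding: DNA-tagged recombinant protein (E. coli BL21-derived or HEK-293), biotinylated peptide ligand-loaded streptavidin beads and compound incubated 1 hour at room temperature, 0.9% DMSO final. Bound protein eluted with 0.5 μM non-biotinylated ligand and quantified by qPCR; Kd from 11-point 3-fold dilution series.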

[4] = system: drug-resistant cell lines of Table 3; assay: Cell line growth retardation assay, resistant cohort; format: cell-based, Human; conditions: arithmetic mean of IC50s over the resistant cohort of Table 3, 6 days growth, read-out: AvgRes IC50
How it was run: as §1

[5] = molecular target: BCLXL (Homo sapiens, UniProt Q07817); assay: BCLXL affinity assay (competition binding, qPCR readout); conditions: recombinant BCLXL, 11-point 3-fold dilution series
BCLXL, sequence (Q07817 whole entry): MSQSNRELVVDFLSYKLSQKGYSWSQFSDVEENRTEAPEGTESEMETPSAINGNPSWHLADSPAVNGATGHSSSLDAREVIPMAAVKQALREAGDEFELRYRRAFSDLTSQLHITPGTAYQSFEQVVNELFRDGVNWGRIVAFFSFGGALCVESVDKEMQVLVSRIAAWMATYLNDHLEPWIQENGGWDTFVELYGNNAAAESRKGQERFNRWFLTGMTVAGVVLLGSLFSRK
Protocol: as §2

Row | SMILES | IC50 [1] [nM] | Fold Diff [1] | Kd [2] [nM] | Kd [3] [nM] | IC50 [4] [nM] | Kd [5] [nM] | IC50 ([1]; Homo sapiens, 144 h) [nM] | IC50 ([4]; Homo sapiens, 144 h) [nM]
1 | Cc1c(-c2c(Cl)ncc3snc(O[C@H](Cc4ccccc4OCc4ccnn4CC(F)(F)F)C(=O)O)c23)ccc(OCCN2CCN(C)CC2)c1Cl (single isomer, unassigned) [Compound 4] | > 5000 | − (“−” represents a fold difference less than 10) | > 1500 | 501 to 1500 | > 5000 | > 1500 |  | 
2 | COc1ccccc1-c1nccc(COc2ccccc2C[C@@H](Oc2nsc3cnc(-c4ccc(F)cc4)c(-c4ccc(OCCN5CCN(C)CC5)c(Cl)c4C)c23)C(=O)O)n1 [Compound 40] |  | + (“+” represents a fold difference of 10 or more) | > 1500 | ≤ 100 |  | > 1500 | ≤ 1000 | > 5000
3 | Cc1c(-c2c(-c3cccc4[nH]c(C(F)(F)F)cc34)ncc3snc(O[C@H](Cc4ccccc4OCc4ccnn4CC(F)(F)F)C(=O)O)c23)ccc(OCCN2CCN(C)CC2)c1Cl (atropisomer, axis not shown) [Compound 16] |  | − (“−” represents a fold difference less than 10) | > 1500 | > 1500 |  | > 1500 | > 5000 | > 5000
4 | COc1cccc(-c2ncc3snc(O[C@H](Cc4ccccc4OCc4ccnc(-c5ccccc5OC)n4)C(=O)O)c3c2-c2ccc(OC[C@@H]3CCCN3C)c(Cl)c2C)c1 (atropisomer, axis not shown) [Compound 49] | 1000 to 5000 | − (“−” represents a fold difference less than 10) | > 1500 | ≤ 100 | > 5000 | > 1500 |  | 
5 | Cc1c(-c2c(-c3cccc4ccoc34)ncc3snc(O[C@H](Cc4ccccc4OCc4ccnn4CC(F)(F)F)C(=O)O)c23)ccc(OCCN2CCN(C)CC2)c1Cl (atropisomer, axis not shown) [Compound 21] |  | − (“−” represents a fold difference less than 10) | > 1500 | 101 to 500 |  | > 1500 | 1000 to 5000 | > 5000
6 | Cc1c(-c2c(C3CCC3)ncc3snc(O[C@H](Cc4ccccc4OCc4ccnn4CC(F)(F)F)C(=O)O)c23)ccc(OCCN2CCN(C)CC2)c1Cl (atropisomer, axis not shown) [Compound 29] |  | + (“+” represents a fold difference of 10 or more) | > 1500 | ≤ 100 |  | > 1500 | ≤ 1000 | > 5000
7 | COc1cccc(-c2ncc3snc(O[C@H](Cc4ccccc4OCc4ccnc(-c5ccccc5OC)n4)C(=O)O)c3c2-c2ccc(OCCC3CCN(C)CC3)c(Cl)c2C)c1 (atropisomer, axis not shown) [Compound 45] |  | − (“−” represents a fold difference less than 10) | > 1500 | ≤ 100 |  | > 1500 | 1000 to 5000 | > 5000
8 | COc1cccc(-c2ncc3snc(O[C@H](Cc4ccccc4OCc4ccnc(-c5ccccc5OC)n4)C(=O)O)c3c2-c2ccc(O)c(Cl)c2C)c1 (atropisomer, axis not shown) [Compound 41] |  | − (“−” represents a fold difference less than 10) | > 1500 | ≤ 100 |  | > 1500 | 1000 to 5000 | > 5000
9 | Cc1c(-c2c(-c3cccc4ccccc34)ncc3snc(O[C@H](Cc4ccccc4OCc4ccnn4CC(F)(F)F)C(=O)O)c23)ccc(OCCN2CCN(C)CC2)c1Cl (atropisomer, axis not shown) [Compound 7] |  | − (“−” represents a fold difference less than 10) | > 1500 | > 1500 |  | > 1500 | > 5000 | > 5000
10 | Cc1c(-c2c(-c3cccc4c3sc3ccccc34)ncc3snc(O[C@H](Cc4ccccc4OCc4ccnn4CC(F)(F)F)C(=O)O)c23)ccc(OCCN2CCN(C)CC2)c1Cl (atropisomer, axis not shown) [Compound 9] |  | − (“−” represents a fold difference less than 10) | > 1500 | > 1500 |  | > 1500 | > 5000 | > 5000
